IC50 and maximal response data for 23 molecules are collected here from the supplement of paper PMC3493320.

The test system of assay [1] is NCI-H295R. Nature of the assay: IC50 (antiproliferative, ATP content). As to conditions: 48 h.
In assay [2] the test system is NCI-H295R. Description: maximal response (efficacy) relative to DMSO (0%) and doxorubicin (-100%); higher = less growth inhibition. To be noted: 48 h.

Structures are written as SMILES.

With `Nc1nc(N)c2nc(-c3ccccc3)c(N)nc2n1`, the IC50 (as a rule, the concentration needed to halve the response being measured) in the assay with NCI-H295R [1] was 2.66 µM. In addition, the maximal response with NCI-H295R [2] was -89.3%.
For `[O-]n1ccccc1=S.[O-]n1ccccc1=S.[Zn+2]` the same measures were 2.66 µM and -125%.
Molecule `C=C1/C(=C\C=C2/CCC[C@]3(C)[C@@H]([C@H](C)CCCC(C)C)CC[C@@H]23)C[C@@H](O)C[C@@H]1O` showed an IC50 in the assay on NCI-H295R [1] of 23.7 µM. Besides, the maximal response in the assay with NCI-H295R [2] is -142%.
Molecule `O=C(OC[C@H]1O[C@@H](OC(=O)c2cc(O)c(O)c(OC(=O)c3cc(O)c(O)c(O)c3)c2)[C@H](OC(=O)c2cc(O)c(O)c(OC(=O)c3cc(O)c(O)c(O)c3)c2)[C@@H](OC(=O)c2cc(O)c(O)c(OC(=O)c3cc(O)c(O)c(O)c3)c2)[C@@H]1OC(=O)c1cc(O)c(O)c(OC(=O)c2cc(O)c(O)c(O)c2)c1)c1cc(O)c(O)c(OC(=O)c2cc(O)c(O)c(O)c2)c1` showed a concentration for half-maximal inhibition (IC50) in the assay with NCI-H295R [1] of 7.5 µM. Also, in the assay on NCI-H295R [2], the maximal response was -122%.
On to `O.O.[Na+].[Na+].[O]=[Cr](=[O])([O-])[O][Cr](=[O])(=[O])[O-]`, for which the IC50 in the assay on NCI-H295R [1] is 11.9 µM. Further, the maximal response in the assay on NCI-H295R [2] is -147%.
For `O=C1C2CC=CCC2C(=O)N1SC(Cl)(Cl)Cl` (stereo unspecified) the same measures were 16.8 µM and -105%.
For `CN(C)C3=CC=C(C=C3)/C(C2=CC=C(N(C)C)C=C2)=C(C=C1)/C=C/C1=N/C` the same measures were 21.1 µM and -167%.
For `Cc1cc(C2CCCCC2)n(O)c(=O)c1.NCCO` the same measures were 0.64 µM and -61.1%.
In the assay on NCI-H295R [1], `[C@@]32([C@@]([C@@H](/C1=C/C(=O)OC1)CC2)([C@H](O)C[C@H]4[C@H]3CC[C@H]9[C@@]4(CC[C@H](O[C@@H]5O[C@@H]([C@H]([C@H](C5)O)O[C@@H]8O[C@@H]([C@@H](O[C@@H]7O[C@@H]([C@@H](O[C@H]6[C@@H]([C@@H](O)[C@@H]([C@H](O6)CO)O)O)[C@H](C7)OC(=O)C)C)C(C8)O)C)C)C9)C)C)O` (stereo partly specified) showed an IC50 of 0.299 µM. In addition, the maximal response in the assay on NCI-H295R [2] was -118%.
In the assay with NCI-H295R [1], `C[C@]12O[C@H](C[C@]1(O)CO)n1c3ccccc3c3c4c(c5c6ccccc6n2c5c31)CNC4=O` showed a 50% inhibitory concentration (IC50) of 18.8 µM. The maximal response in the assay with NCI-H295R [2] is -150%.
In the assay on NCI-H295R [1], `O=C1C(=O)c2ncccc2-c2cccnc21` showed an IC50 of 3.76 µM. Also, the maximal response in the assay on NCI-H295R [2] is -63%.
For `[Na+].[Na+].[O-]C(=O)c4c(Cl)c(Cl)c(Cl)c(Cl)c4C=2c3cc(I)c([O-])c(I)c3OC=1C=2\C=C(\I)C(=O)C=1I` the same measures were 23.7 µM and -153%.
For `CC(=O)Nc1ccc(NC(=S)NC(=O)c2ccc(C(C)(C)C)cc2)cc1` the same measures were 21.1 µM and -151%.
In turn, `O=S(=O)([O-])c1cc(O)c2c(N=Nc3ccc(Nc4ccccc4)c4c(S(=O)(=O)[O-])cccc34)cc(S(=O)(=O)[O-])cc2c1.[Na+].[Na+].[Na+]` showed a 50% inhibitory concentration (IC50) with NCI-H295R [1] of 11.9 µM. In addition, in the assay with NCI-H295R [2], the maximal response was -73.8%.
In turn, `CC(C)CCC[C@@H](C)[C@H]1CC(=O)C2=C3CC[C@H]4C[C@@H](O)CC[C@]4(C)[C@H]3CC[C@@]21C` displayed an IC50 in the assay on NCI-H295R [1] of 8.41 µM. In addition, the maximal response in the assay on NCI-H295R [2] is -65%.
In turn, `CC1=CC(=O)c2ccccc2C1=O` registered an IC50 with NCI-H295R [1] of 23.7 µM. Further, the maximal response with NCI-H295R [2] is -158%.
For `Oc1c(Cl)cc(Cl)c2cccnc12` the same measures were 5.31 µM and -105%.
In the assay with NCI-H295R [1], `Oc1c(Br)cc(Br)c2cccnc12` showed a 50% inhibitory concentration (IC50) of 6.68 µM. Besides, the maximal response with NCI-H295R [2] is -80.8%.
For `Cc1c2oc3c(C)ccc(C(=O)N[C@@H]4C(=O)N[C@H](C(C)C)C(=O)N5CCC[C@H]5C(=O)N(C)CC(=O)N(C)[C@@H](C(C)C)C(=O)O[C@H]4C)c3nc-2c(C(=O)N[C@@H]2C(=O)N[C@H](C(C)C)C(=O)N3CCC[C@H]3C(=O)N(C)CC(=O)N(C)[C@@H](C(C)C)C(=O)O[C@H]2C)c(N)c1=O`, in that order: 0.376 µM and -113%.
Molecule `CNC(=O)c1cc(Oc2ccc(NC(=O)Nc3ccc(Cl)c(C(F)(F)F)c3)cc2)ccn1.Cc1ccc(S(=O)(=O)O)cc1` yielded an IC50 in the assay with NCI-H295R [1] of 10.6 µM. Besides, in the assay on NCI-H295R [2], the maximal response is -129%.
For `O=[C@@]([C@@H]4C3=CC(C(C1=CC=CC(O)=C12)=O)=C(C(O)=C3[C@@H](O[C@@H]7O[C@H]([C@H]([C@@H](N(C)C)C7)O[C@H](O6)C[C@@H]([C@@H]([C@@H]6C)O[C@H](O5)CCC([C@@H]5C)=O)O)C)C[C@](CC)4O)C2=O)OC.Cl` the same measures were 0.944 µM and -122%.
Turning to `CC(C)=CCOc1ccc(C=CC(=O)c2ccc(OCC=C(C)C)cc2OCC(=O)O)cc1`, the IC50 in the assay with NCI-H295R [1] was 23.7 µM. The maximal response with NCI-H295R [2] was -145%.
Turning to `CO[C@@]12[C@H](COC(N)=O)C3=C(C(=O)C(C)=C(N)C3=O)N1C[C@@H]1N[C@@H]12`, in the assay on NCI-H295R [1], the IC50 turned out to be 26.6 µM. Moreover, in the assay with NCI-H295R [2], the maximal response was -132%.
